The values that follow come from US8227515B2, “Use of hydroxamic acid derivatives for the preparation of anti-tumour medicaments” (Italfarmaco S.p.A., priority 2003, dated 2012).

pIC50: −log10 of the molar value. Where a name gives a salt, the structure may show the parent alone.

For one test, the system named is KG-1 (myeloid leukaemia). The test can be described thus: Tritiated thymidine incorporation, tumour cell growth inhibition. It counts as cell-based. The note with it: 48 hours with compound, read-out: IC50 (50% cell growth inhibition). On the procedure: (§1) The anti-tumour effect of the compound of example 12 of EP 901465, 4-[6-(diethylaminomethyl)naphth-2-ylmethyloxycarbamoyl)] benzohydroxamic acid hydrochloride (ITF 2357), was tested in vitro by measuring the capacity of the compound to inhibit the growth of tumour cell lines of different histotype deriving from both solid tumours and haematological tumours. The cell lines used were: A549 (pulmonary carcinoma), MDA-MB435 (breast carcinoma) and KG-1 (myeloid leukaemia).
[…] KG-1 cells, grown in RPMI 1640 culture medium, supplemented with 5% fetal calf serum, were seeded in 96 wells-flat bottom-plates (250000 cells/well). ITF 2357 at various doses was immediately added and after 36 hours tritiated thymidine was added to each well (1 μCi/well) and left therein for the following 12 hours. At the end the cells were collected by a cell harvester and the radioactivity contained in each sample which is directly proportionated to DNA synthesis and therefore to cell proliferation was measured by a liquid scintillation beta counter.
(§2) The effect of different doses of ITF 2357 was measured as percent of inhibition of radioactivity incorporation compared with untreated control cells. […]
(In general: Incorporation of labelled thymidine or its analogues reports DNA synthesis.)

A further test has as its system Anad (Melanoma). The test can be described thus: Sulforhodamine B viable cell assay, 72 hours. In kind it is cell-based. Conditions: Homo sapiens. Here is the method:
(§3) Cell lines derived from human solid tumours of different histotype and stabilised in vitro were used in the following experiment. In particular, three cell lines from head and neck tumours (KB, Ca127 and Hep2), two cell lines derived from colon carcinomas (HT-29 and LoVo) and four cell lines derived from melanomas (Colo38, Pes41, Pes43 and Anad) were studied.
(§4) The cells were grown according to conventional methods in flasks containing synthetic culture medium added with fetal serum, at 37° C. under 5% CO2 atmosphere, then seeded in 96 wells plates and allowed to adhere for some hours. ITF 2357 was added in triplicate at increasing doses to each well and the cells were incubated for further 72 hours. Viable cells were labelled by dyeing with sulforhodamine B and their amount was determined by spectrophotometric evaluation of the dye content in each well. The effect of ITF 2357 was calculated as percentage of inhibition, at each concentration, of the dye incorporation in wells containing ITF 2357 compared with control wells (cells without drug). IC50 values of ITF 2357 were calculated by Software Calcusyn (Biosoft) according to dose-response curves.

The subject of a further test is Colo38 (Melanoma). The test can be described thus: Sulforhodamine B viable cell assay, 72 hours. It counts as cell-based. Conditions: Homo sapiens. Here is the method: as §3, §4
The subject of the next test is LoVo (Colon carcinoma). Kind of test: Sulforhodamine B viable cell assay, 72 hours. In kind it is cell-based. The note with it: Homo sapiens. On the procedure: as §3, §4
A further test relates to Cal27 (Head-neck). Kind of test: Sulforhodamine B viable cell assay, 72 hours. It counts as cell-based. Conditions: Homo sapiens, CAL-27. Here is the method: as §3, §4
Another test relates to Pes41 (Melanoma). Kind of test: Sulforhodamine B viable cell assay, 72 hours. In kind it is cell-based. The note with it: Homo sapiens. On the procedure:
as §3, §4

The test system of the next test is HT-29 (Colon carcinoma). Kind of test: Sulforhodamine B viable cell assay, 72 hours. In kind it is cell-based. Conditions: Homo sapiens. On the procedure: as §3, §4
The next test concerns KB (Head-neck). Kind of test: Sulforhodamine B viable cell assay, 72 hours. The note with it: Homo sapiens. It counts as cell-based. Here is the method: as §3, §4
The test system of a further test is Pes43 (Melanoma). Kind of test: Sulforhodamine B viable cell assay, 72 hours. It counts as cell-based. Conditions: Homo sapiens. On the procedure:
as §3, §4

In the next test the test system is Hep-2 (Head-neck). Kind of test: Sulforhodamine B viable cell assay, 72 hours. The note with it: Homo sapiens. It counts as cell-based. On the procedure: as §3, §4
Test [1] deals with A549 (pulmonary carcinoma). Kind of test: Tritiated thymidine incorporation, tumour cell growth inhibition. In kind it is cell-based. Conditions: Homo sapiens, 48 hours with compound, read-out: IC50 (50% cell growth inhibition). Here is the method: as §1
(§5) A549 and MDA-MB435 cells (respectively grown in E-MEM and D-MEM culture medium, supplemented with 10% of fetal calf serum) were seeded on 96 wells-flat bottom-plates (5000 cells/well) and allowed to adhere for 4 hours at 37° C. under 5% CO2 atmosphere. Thereafter ITF 2357 at various doses was added to each well (4 replicates). […]
(§6) […] At the end the cells were collected by a cell harvester and the radioactivity contained in each sample which is directly proportionated to DNA synthesis and therefore to cell proliferation was measured by a liquid scintillation beta counter.
as §2

The subject of test [2] is MDA-MB435 (breast carcinoma). Described as above. Conditions: Homo sapiens, MDA-MB-435, 48 hours with compound, read-out: IC50 (50% cell growth inhibition). It counts as cell-based. Here is the method:
as §1, §5, §6, §2

Another test has as its system murine melanoma B16-BL6. The test can be described thus: Growth of subcutaneous murine melanoma B16-BL6 in vivo. The note with it: female C57BL/6 mice, oral, daily 6 days a week. Also on record: species or system mouse C57BL/6. From the text:
The anti-tumour effect of ITF 2357 was studied measuring the capacity of the compound to reduce the growth of the murine melanoma B16-BL6. B16-BL6 tumour is a highly metastatic variant (Sciumbata T. et al. Invasion and Metastasis 1996; 16: 132-143) of the native tumour B16 and it grows subcutaneously in the syngenic mouse C57BL/6 (Gutman M et al. Cancer Biother. 1994; 9(2): 163-170). B16-BL6 tumour cells were inoculated subcutaneously in female C57BL/6 mice (10 animals/group, weight 20-22 grams) at the dose of 2×10^5 cells/mouse. ITF 2357 dissolved in water was administered orally, at the indicated doses, 10 minutes before the inoculum of the tumour cells and then daily for 6 days a week. The tumour growth was expressed as tumour weight, measuring twice a week, by means of a calibre, the two perpendicular diameters of the nodules. The weight was calculated according to the formula: (diameter 1×diameter 2)^2/2 as described in Giavazzi R. et al. Cancer Res. 1986; 46: 1928-1933.

Turning to `CCN(CC)Cc1ccc2cc(COC(=O)Nc3ccc(C(=O)NO)cc3)ccc2c1` [ITF 2357, 4-[6-(diethylaminomethyl)naphth-2-ylmethyloxycarbamoyl)] benzohydroxamic acid hydrochloride], the pIC50 in the test with KG-1 (myeloid leukaemia) is 6.26; in the test on Anad (Melanoma) it was 5.24; in the test on Colo38 (Melanoma), 5.62; in the test with LoVo (Colon carcinoma), 5.60; in the test on Cal27 (Head-neck), 5.47; in the test on Pes41 (Melanoma) it was 5.80. In addition, the negative-log IC50 (pIC50) is 6.15 in the test on HT-29 (Colon carcinoma); 6.19 in the test on KB (Head-neck); 5.85 in the test on Pes43 (Melanoma); 6.00 in the test with Hep-2 (Head-neck); 6.31 in test [1]; 7.14 in [2]. Besides, the “effect on the tumour growth” value in the test with murine melanoma B16-BL6 was “dose-dependent inhibitory effect”. In the test on murine melanoma B16-BL6 (after 15 days of treatment), the “reduction of the volume of the tumoural nodule” value is reported as “about 50%”.

As a reminder, the pIC50 is −log10 of the IC50, conventionally taken in molar units.
